Reference: ChEMBL document CHEMBL1201862, “PubChem BioAssay data set” (2004)
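Exposure lasted 48 hours, with cells grown in 96-well plates and compounds tested at five concentrations. GI50 is the concentration that inhibits growth by half.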 Active and inactive are the calls of the source. Cut-off read from the data, not from the text of the source: active = GI50 up to about 1.1 µM and inactive = higher.

How the values were obtained:
Assay in all cases: NCI tumour cell line growth inhibition, 48 h
[1] = system: SK-MEL-28
[2] = system: SK-MEL-2
[3] = system: SK-MEL-5
[4] = system: HOP-62
[5] = system: A498
[6] = system: NCI-H226
[7] = system: SW-620
[8] = system: T47D
[9] = system: CAKI-1
[10] = system: OVCAR-5
[11] = system: OVCAR-8
[12] = system: HCC 2998
[13] = system: SK-OV-3
[14] = system: U-251
[15] = system: KM12
[16] = system: SNB-75
[17] = system: UACC-257
[18] = system: M14
[19] = system: RPMI-8226
[20] = system: LOX IMVI

Measured: GI50

CN(C)CCNC(=O)c1cccc(NC(=O)c2ccccc2)c1[N+](=O)[O-]
inactive: [1] > 100 µM | [2] > 100 µM | [3] 77.1 µM | [4] > 100 µM | [5] > 100 µM | [6] > 100 µM | [7] > 100 µM | [8] > 100 µM | [9] > 100 µM | [10] > 100 µM | [11] > 100 µM | [12] > 100 µM | [13] > 100 µM | [14] > 100 µM | [15] > 100 µM | [16] 36 µM | [17] > 100 µM | [18] > 100 µM

N#Cc1nc(COCc2ccccc2)oc1N
inactive: [1] > 100 µM | [2] > 100 µM | [19] 74.8 µM | [4] > 100 µM | [20] > 100 µM | [6] > 100 µM | [7] > 100 µM | [8] > 100 µM | [9] > 100 µM | [10] > 100 µM | [11] > 100 µM | [12] > 100 µM | [13] > 100 µM | [14] > 100 µM | [15] 58.6 µM | [16] > 100 µM | [17] > 100 µM | [18] > 100 µM

CC(=O)SSC1(Cl)C(C)(C)C(Cl)(SSC(C)=O)C1(C)C (centres undefined)
inactive: [1] > 100 µM | [2] > 100 µM | [3] 29.8 µM | [4] 44.3 µM | [20] 33.3 µM | [5] 67.5 µM | [6] > 100 µM | [7] 40.1 µM | [8] 20.8 µM | [9] > 100 µM | [10] > 100 µM | [11] 39.4 µM | [13] > 100 µM | [14] 33.3 µM | [15] 39.4 µM | [16] 30.4 µM | [17] 41.3 µM | [18] 84.1 µM

C[C@]12CCC3c4ccc(O)cc4CC[C@H]3C1CC(=O)N(N)C2=O (some centres undefined)
inactive: [1] > 100 µM | [3] > 100 µM | [4] > 100 µM | [5] > 100 µM | [6] > 100 µM | [7] > 100 µM | [8] > 100 µM | [9] > 100 µM | [10] > 100 µM | [11] > 100 µM | [12] > 100 µM | [13] > 100 µM | [14] > 100 µM | [15] > 100 µM | [16] > 100 µM | [17] > 100 µM | [18] > 100 µM

CC(=O)OC[C@@H](OC(C)=O)[C@@H](OC(C)=O)[C@H]1OC[C@@H]2C[C@H]([C@H]1OC(C)=O)N(Cc1ccccc1)O2
inactive: [1] > 100 µM | [2] > 100 µM | [19] > 100 µM | [3] > 100 µM | [4] > 100 µM | [20] > 100 µM | [6] > 100 µM | [7] > 100 µM | [8] > 100 µM | [9] > 100 µM | [10] > 100 µM | [12] > 100 µM | [13] 93.8 µM | [14] > 100 µM | [15] > 100 µM | [16] > 100 µM | [17] > 100 µM | [18] > 100 µM

O=[N+]([O-])c1ccc(NN/N=N/c2ccc(-c3nc4ccccc4s3)cc2)c([N+](=O)[O-])c1
inactive: [1] 33.7 µM | [2] 21 µM | [3] 15.3 µM | [4] 21.9 µM | [20] 17.3 µM | [5] 4.34 µM | [6] 29.5 µM | [7] 37.6 µM | [8] 19.1 µM | [9] 26.5 µM | [10] 23.8 µM | [11] 24.3 µM | [12] 17.8 µM | [13] 28.7 µM | [14] 23.4 µM | [15] 27.5 µM | [16] 24.8 µM | [17] 18.9 µM | [18] 18.2 µM

CC(C)C1CNC(=O)C2(/C=N/C(C(C)C)CNC(=O)C3(/C=N/1)CCCO3)CCCO2 (centres undefined)
inactive: [1] > 10 µM | [19] > 10 µM | [3] > 10 µM | [4] > 10 µM | [5] > 10 µM | [7] > 10 µM | [8] > 10 µM | [9] > 10 µM | [11] > 10 µM | [12] > 10 µM | [13] > 10 µM | [14] > 10 µM | [15] > 10 µM | [16] > 10 µM | [17] > 10 µM | [18] > 10 µM

COc1ccc(N2C(=O)/C(=C/c3ccc(N(CCC#N)CCC#N)cc3)N=C2c2ccccc2)cc1
inactive: [1] > 100 µM | [2] > 100 µM | [19] > 100 µM | [3] > 100 µM | [4] > 100 µM | [20] > 100 µM | [5] > 100 µM | [6] > 100 µM | [7] > 100 µM | [8] > 100 µM | [9] 6.19 µM | [10] > 100 µM | [11] > 100 µM | [13] > 100 µM | [14] > 100 µM | [15] > 100 µM | [16] > 100 µM | [17] > 100 µM | [18] > 100 µM

CN1C(=O)C23CCCC2CC1(c1ccccc1)S3 (centres undefined)
inactive: [1] > 100 µM | [2] 49.7 µM | [19] > 100 µM | [3] > 100 µM | [4] > 100 µM | [20] > 100 µM | [5] > 100 µM | [6] > 100 µM | [7] > 100 µM | [8] 54.6 µM | [9] > 100 µM | [10] > 100 µM | [11] > 100 µM | [13] > 100 µM | [14] > 100 µM | [15] > 100 µM | [17] 23 µM | [18] > 100 µM

O=c1[nH]c2ccc(C(F)(F)F)cc2nc1-c1ccccc1
inactive: [1] > 100 µM | [19] > 100 µM | [3] > 100 µM | [4] > 100 µM | [20] > 100 µM | [5] > 100 µM | [7] > 100 µM | [8] > 100 µM | [9] > 100 µM | [10] > 100 µM | [11] 52.4 µM | [12] > 100 µM | [16] > 100 µM | [17] > 100 µM | [18] > 100 µM

COc1cc2c(cc1OC)-c1cc3ccc(OC)c(OC)c3c[n+]1CC2 [PALMATINE CHLORIDE]
inactive: [1] > 100 µM | [2] 97.1 µM | [19] > 100 µM | [3] 34.8 µM | [4] > 100 µM | [6] > 100 µM | [7] > 100 µM | [8] 83.4 µM | [9] > 100 µM | [10] > 100 µM | [11] > 100 µM | [12] > 100 µM | [13] > 100 µM | [14] 27.9 µM | [15] > 100 µM | [16] > 100 µM | [17] 48.5 µM | [18] > 100 µM
